Data from PMC10674617, “Design, Synthesis, Evaluation and Molecular Dynamics Simulation of Dengue Virus NS5-RdRp Inhibitors” (Pharmaceuticals, 2023).
Values joined by “and” are separate entries in the source; they are usually repeats but may differ in a detail not shown here. Equal values may be shown once. Read-outs that look alike come from different tables or passages of the source.

Tests used:
DENV2 RdRp = molecular target: T1, DENV2 RdRp (Dengue virus type 2, UniProt P14340); test: DENV biochemical enzyme assay; details: mean ± SD of two individual experiments
T1 construct: 100 nM of DENV2 full-length NS5 enzyme
Procedure: The inhibitory activities of compounds SW-b and SW-d against DENV-2 RdRp were assessed using in vitro enzyme inhibition assays. Compounds 3′-dATP, BCX4430, and NITD008 were used as controls. […] This confirmed the reliability of the DENV2 RdRp inhibitory activity assay.
Additionally, it contained 20 μM ATP, 20 μM GTP, 20 μM UTP, 5 μM ATTO-CTP, and 100 nM of DENV2 full-length NS5 enzyme. These were all suspended in a solution consisting of 50 mM Tris/HCl at pH 7.5, 10 mM KCl, 1 mM MgCl2, 0.3 mM MnCl2, 0.001% Triton-X-100, and 10 μM cysteine. Five compounds, with concentrations ranging from 0 to 20 or 100 μM, were serially diluted 2-fold into 384-well white opaque plates (Corning Costar, New York, NY, USA), resulting in a final volume of 5 μL. Subsequently, 5 μL of the enzyme in a 1× assay buffer was added to their respective wells. The plate was incubated at room temperature for 15 min, after which 5 μL of a mixture containing RNA and NTPs was introduced to initiate the reactions. After a reaction time of 120 min, the process was terminated by adding 10 μL of a 2.5× STOP buffer, comprising 200 mM NaCl, 25 mM MgCl2, and 1.5 M DEA adjusted to pH 10 using […]. Additionally, 25 nM of calf intestinal alkaline phosphatase (NEB) was introduced. The mixture was allowed to incubate at room temperature for an additional 60 min. To quantify the results, a Tecan Saffire II microplate reader was employed, with excitation max and emission max wavelengths set at 422 nm and 566 nm, respectively. All data points were analyzed in duplicate wells. Finally, the IC50 values were determined using a nonlinear regression curve fit for a sigmoidal dose–response (variable slope) in GraphPad Prism version 3.02 (GraphPad Prism, Inc., San Diego, CA).

Cytotoxicity assay = format: cell-based; details: dog
DENV2 NGC strain = test: Cytopathic effect (CPE) inhibition assay; format: cell-based, Dengue virus (DENV2); details: for SI (Selectivity Index): ratio of CC50 to IC50; for IC50: BHK-21 cells, DENV2 NGC strain, mean ± SD of two individual experiments, read-out: DENV-NGC-IC50
Procedure: The antiviral activities of the nine synthesized compounds against DENV were assessed using the DENV2 NGC strain and BHK-21 cells via CPE inhibition assays. BCX4430, NITD008, and 27 were used as positive controls (Figure S2). […] The activity of compound SW-d was higher than that of BCX4430 and lower than that of NITD008; however, its SI was higher than those of BCX4430 and NITD008.
In cell-based antiviral assays, the DENV2 NGC strain (Sino Biological Inc., Beijing, China) and BHK-21 cells (Baby hamster kidney cell line; ATCC CCL10) were used. The viral stock was prepared by inoculating C6/36 cells (Aedes albopictus clone C6/36; ATCC CRL166) as described previously. […] The supernatant was cleared by centrifugation at 2000 g for 5 min to remove cell debris and adjusted to 20% FBS. Aliquots of the virus were stored at […]. The 50% tissue culture infective dose (TCID50) was determined using the Promega Viral ToxGlo assay (Fisher Scientific, Ottawa, ON, Canada) in BHK-21 cells, according to the manufacturer’s instructions. Cell-based assays for the evaluation of antiviral activity against DENV were performed as described previously with modifications, using the Viral ToxGlo assay (Fisher Scientific, Ottawa, ON, Canada) according to the manufacturer’s instructions. Briefly, BHK-21 cells were plated in 96-well plates at 2500 cells/well in Dulbecco’s modified Eagle’s medium (DMEM) containing 10% FBS and 1% penicillin-streptomycin. Cells were incubated at 37 °C overnight and infected with 100 TCID50 of DENV for 90 min. The medium was replaced with DMEM containing 2.5% FBS and varying concentrations of the test compounds. Cell cultures were maintained at 37 °C in a 5% CO2 incubator for 3 days. The Viral Tox reagent was freshly prepared, and 100 μL of the reagent was added to each well. The plates were incubated for at least 10 min and then quantified using a 1450 MicroBeta TriLux microplate scintillation and luminescence counter (PerkinElmer, Waltham, MA, USA). For the off-target cytotoxicity assay, the test compounds were processed as described above, except without DENV infection of the cells. The luminescence readings were plotted against the log transformation of the concentration of the compound. Data were analyzed by nonlinear regression using GraphPad Prism 5.0 software (GraphPad Software, San Diego, CA, USA).

DENV RdRp = test system: DENV RdRp; design: method as in PMID 26984786, PMID 27500641; details: against all clinically relevant dengue virus serotypes; cited from earlier work
MDCK cells = test: Cytotoxicity assay; format: cell-based; details: cytotoxicity, MDCK cells
[1] = Dengue virus, DENV2, BHK-21, CPE inhibition

Row | Compound | CC50 at 3 days (Cytotoxicity assay) | IC50 (DENV2 NGC strain; [1]) | other results
1 | Nc1ncnc2c1ncn2[C@@H]1O[C@H](COP(=O)(O)OP(=O)(O)OP(=O)(O)O)C[C@H]1O [3′-dATP, reference compound] |  |  | IC50 (DENV2 RdRp): 30.1 ± 8.26 µM
2 | Nc1ncnc2c([C@@H]3N[C@H](CO)[C@@H](O)[C@H]3O)c[nH]c12 [BCX4430, reference compound] | 100 µM |  | SI (Selectivity Index) (DENV2 NGC strain): 2.40
3 | COc1cc(C)c(C(=O)NS(=O)(=O)c2cccc3cccnc23)cc1-c1ccc(C#CCO)s1 [Compound 27, reference compound] |  | 19.7 ± 1.12 µM | IC50 (DENV RdRp): 0.013 to 0.074 µM
4 | COc1cccc(S(=O)(=O)NC(=O)c2cc(-c3ccc(C#CCO)s3)c(OC)cc2OC)c1 [Compound 29] |  |  | IC50 (DENV RdRp): 0.048 to 0.172 µM
5 | C#C[C@@]1(O)[C@H](O)[C@@H](CO)O[C@H]1n1ccc2c(N)ncnc21 [NITD008, reference compound] |  |  | CC50 (MDCK cells): 20 µM; IC50 (DENV2 NGC strain; CPE inhibition): 41.6 µM and 15.5 µM
6 | COc1cccc(C(=O)NS(=O)(=O)c2cc(-c3ccc(C#CCO)s3)c(OC)cc2C)c1 [SW-a] |  | 57.6 ± 2.37 µM | 
7 | COc1cc(C)c(S(=O)(=O)NC(=O)C(C)Oc2ccc3c4c(c(=O)oc3c2)CCCC4)cc1-c1ccc(C#CCO)s1 (stereo not drawn) [SW-b] | 24.7 µM | 3.58 ± 0.29 µM | IC50 (DENV2 RdRp): 11.5 ± 1.3 µM; SI (Selectivity Index) (DENV2 NGC strain): 6.89
8 | COc1cc(C)c(S(=O)(=O)NC(=O)c2ccc(-n3c(C)ccc3C)cc2)cc1-c1ccc(C#CCO)s1 [SW-c] | > 200 µM | 41.5 ± 1.37 µM | 
9 | COc1cc(C)c(S(=O)(=O)NC(=O)c2ccc(C)c(Nc3nc(C)nc4c3CCC4)c2)cc1-c1ccc(C#CCO)s1 [SW-d] | 134 µM | 23.9 ± 1 µM | IC50 (DENV2 RdRp): 13.5 ± 0.32 µM; SI (Selectivity Index) (DENV2 NGC strain): 5.58
10 | COc1cc(C)c(S(=O)(=O)NC(=O)C2CC(=O)N(c3ccc(Cl)c(Cl)c3)C2)cc1-c1ccc(C#CCO)s1 (stereo not drawn) [SW-e] | 69.9 µM | > 200 µM | 
11 | COc1cc(C)c(S(=O)(=O)NC(=O)c2ccc3c(c2)C(=O)N(c2cccc(C)c2)C3=O)cc1-c1ccc(C#CCO)s1 [SW-f] | > 200 µM | 53.8 ± 4.53 µM | SI (Selectivity Index) (DENV2 NGC strain): >3.72
12 | COc1cc(C)c(S(=O)(=O)NC(=O)c2ccc(C)s2)cc1-c1ccc(C#CCO)s1 [SW-g] |  | > 200 µM | 
13 | COc1cc(C)c(S(=O)(=O)NC(=O)c2ccncn2)cc1-c1ccc(C#CCO)s1 [SW-h] |  | > 200 µM | 
14 | COc1cc(C)c(S(=O)(=O)NC(=O)Cn2nc(C)cc2C)cc1-c1ccc(C#CCO)s1 [SW-i] |  | > 200 µM | 
